Test results: patent US12606544B2, “JAK1 selective kinase inhibitor” (DIZAL (JIANGSU) PHARMACEUTICAL CO., LTD., priority 2019, dated 2026)

Experiments:
[1] = Metabolic stability in human liver microsome; type: in vitro ADME; details: human, pooled human liver microsomes, pH 7.4, 1 μM compound, 1 mg/mL microsomes, NADPH
Experimental: (§1) Rat hepatocytes in male gender and human liver microsome were obtained from commercial vendors (e.g., BioreclamationIVT) and stored at −150° C. prior to use.
For metabolic stability assay with human liver microsome, 1 μM of each test compound was incubated with 1 mg/mL of microsomes (Pooled HLM with 20 mg/ml protein cone) at 37° C. in 250 μL of buffer (100 mM phosphate buffer, pH-7.4) containing 1 mM NADPH solution. […] was quenched with 5 volumes chilled acetonitrile at different time points 0, 0.5, 5, 10, 15, 20 and 30 min in a fresh 96 well plate. The quench plate was centrifuged at 4000 rpm for 15 min. 40 μL of supernatant was diluted to 200 μL with pure water and analyzed using LC-MS/MS. […]

[2] = Metabolic stability in rat hepatocytes; type: in vitro ADME; details: 1 μM compound, male rat hepatocytes
Experimental: as §1
For metabolic stability assay with rat heptatocytes, vials of cryopreserved hepatocytes or microsome were removed from storage, ensured that vials remain at cryogenic temperatures. 1 μM of each test compound (in Acetonitrile; 0.01% DMSO) was incubated with 250 μL of hepatocyte cells (1×10^6 cells/ml) in a 96 deep well plate. […] 40 μL of supernatant was diluted to 200 μL with pure water and analyzed using LC-MS/MS.
In vitro hepatocyte clearance was estimated based on determination of elimination half-life (T1/2) of compounds disappearance from their initial concentrations. Peak area ratios of each compound (test or control) to IS was calculated. Ln (% Control) versus Incubation Time (min) curve was plotted, and the slope of a linear fitting line was calculated. Drug elimination rate constant k (min−1), T1/2 (min), and in vitro intrinsic clearance CLint (μL/min/E6) was calculated according to the following equations: k=−slope T1/2=0.693/k CLint=k/Chep Where Chep (cells×μL^−1) is the cell concentration in the incubation system.

TYK2 = target: T1, TYK2 (Homo sapiens, UniProt P29597); assay: Lance Ultra Kinase Assay, recombinant TYK2; type: biochemical; details: 5 mM ATP
T1 construct: purchased Carna Biosciences
T1 sequence (P29597 whole entry): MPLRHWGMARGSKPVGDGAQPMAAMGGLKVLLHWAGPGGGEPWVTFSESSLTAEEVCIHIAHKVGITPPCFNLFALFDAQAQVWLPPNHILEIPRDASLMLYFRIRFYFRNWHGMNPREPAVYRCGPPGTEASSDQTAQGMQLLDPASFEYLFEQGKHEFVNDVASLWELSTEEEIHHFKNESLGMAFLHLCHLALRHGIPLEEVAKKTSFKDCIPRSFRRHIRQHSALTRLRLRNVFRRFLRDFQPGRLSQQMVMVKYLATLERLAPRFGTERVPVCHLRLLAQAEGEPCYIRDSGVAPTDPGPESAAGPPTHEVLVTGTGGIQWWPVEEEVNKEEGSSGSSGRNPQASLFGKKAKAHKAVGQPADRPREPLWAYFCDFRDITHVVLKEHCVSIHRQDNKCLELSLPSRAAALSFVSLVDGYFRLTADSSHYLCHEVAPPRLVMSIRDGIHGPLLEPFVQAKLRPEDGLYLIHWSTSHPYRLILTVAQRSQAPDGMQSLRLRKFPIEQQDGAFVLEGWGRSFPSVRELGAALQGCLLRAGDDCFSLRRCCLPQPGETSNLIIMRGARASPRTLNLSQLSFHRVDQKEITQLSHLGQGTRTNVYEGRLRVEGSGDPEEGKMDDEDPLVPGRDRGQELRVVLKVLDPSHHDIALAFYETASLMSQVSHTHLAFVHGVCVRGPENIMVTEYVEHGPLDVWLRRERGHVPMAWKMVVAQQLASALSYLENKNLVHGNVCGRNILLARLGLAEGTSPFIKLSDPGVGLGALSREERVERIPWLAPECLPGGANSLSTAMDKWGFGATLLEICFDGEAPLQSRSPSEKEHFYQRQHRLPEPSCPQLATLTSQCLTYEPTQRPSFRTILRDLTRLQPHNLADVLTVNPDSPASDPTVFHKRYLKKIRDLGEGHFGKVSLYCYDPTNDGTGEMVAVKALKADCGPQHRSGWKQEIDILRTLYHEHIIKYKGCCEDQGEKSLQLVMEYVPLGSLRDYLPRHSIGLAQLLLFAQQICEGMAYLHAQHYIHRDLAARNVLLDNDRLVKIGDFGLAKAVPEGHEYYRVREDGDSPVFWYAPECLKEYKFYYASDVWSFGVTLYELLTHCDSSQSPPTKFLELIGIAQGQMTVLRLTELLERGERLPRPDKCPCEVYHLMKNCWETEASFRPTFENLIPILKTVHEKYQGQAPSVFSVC
Summary of the method: (§2)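 Each recombinant kinase preincubated with or without compound 15 min at room temperature, then reaction started with 5 mM ATP and substrate peptide for 60 min. Stopped with EDTA-containing detection mix; TR-FRET read at ex 320 nm, 665/615 nm emission ratio taken as kinase activity.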

phosphorylation of STAT6 = assay: Cellular p-STAT6 assay, IL-13 stimulated THP-1 cells, flow cytometry; type: cell-based; details: Homo sapiens, THP-1, THP-1 cells, IL-13 10 ng/ml; read-out: pSTAT6 IC50
Summary of the method: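 THP-1 cells (2×10^5/well, RPMI1640 + 10% FBS) preincubated 60 min at room temperature with compound (1 μM to 0.3 nM), then stimulated 30 min with IL-13 at 10 ng/ml. Fixed, methanol-permeabilized cells stained with PE anti-pSTAT6 and read by flow cytometry; IC50 from dose-response curves.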

JAK1 = target: T2, JAK1 (Homo sapiens, UniProt P23458); assay: Lance Ultra Kinase Assay, recombinant JAK1; type: biochemical; details: 5 mM ATP
T2 construct: purchased Carna Biosciences
T2 sequence (P23458 whole entry): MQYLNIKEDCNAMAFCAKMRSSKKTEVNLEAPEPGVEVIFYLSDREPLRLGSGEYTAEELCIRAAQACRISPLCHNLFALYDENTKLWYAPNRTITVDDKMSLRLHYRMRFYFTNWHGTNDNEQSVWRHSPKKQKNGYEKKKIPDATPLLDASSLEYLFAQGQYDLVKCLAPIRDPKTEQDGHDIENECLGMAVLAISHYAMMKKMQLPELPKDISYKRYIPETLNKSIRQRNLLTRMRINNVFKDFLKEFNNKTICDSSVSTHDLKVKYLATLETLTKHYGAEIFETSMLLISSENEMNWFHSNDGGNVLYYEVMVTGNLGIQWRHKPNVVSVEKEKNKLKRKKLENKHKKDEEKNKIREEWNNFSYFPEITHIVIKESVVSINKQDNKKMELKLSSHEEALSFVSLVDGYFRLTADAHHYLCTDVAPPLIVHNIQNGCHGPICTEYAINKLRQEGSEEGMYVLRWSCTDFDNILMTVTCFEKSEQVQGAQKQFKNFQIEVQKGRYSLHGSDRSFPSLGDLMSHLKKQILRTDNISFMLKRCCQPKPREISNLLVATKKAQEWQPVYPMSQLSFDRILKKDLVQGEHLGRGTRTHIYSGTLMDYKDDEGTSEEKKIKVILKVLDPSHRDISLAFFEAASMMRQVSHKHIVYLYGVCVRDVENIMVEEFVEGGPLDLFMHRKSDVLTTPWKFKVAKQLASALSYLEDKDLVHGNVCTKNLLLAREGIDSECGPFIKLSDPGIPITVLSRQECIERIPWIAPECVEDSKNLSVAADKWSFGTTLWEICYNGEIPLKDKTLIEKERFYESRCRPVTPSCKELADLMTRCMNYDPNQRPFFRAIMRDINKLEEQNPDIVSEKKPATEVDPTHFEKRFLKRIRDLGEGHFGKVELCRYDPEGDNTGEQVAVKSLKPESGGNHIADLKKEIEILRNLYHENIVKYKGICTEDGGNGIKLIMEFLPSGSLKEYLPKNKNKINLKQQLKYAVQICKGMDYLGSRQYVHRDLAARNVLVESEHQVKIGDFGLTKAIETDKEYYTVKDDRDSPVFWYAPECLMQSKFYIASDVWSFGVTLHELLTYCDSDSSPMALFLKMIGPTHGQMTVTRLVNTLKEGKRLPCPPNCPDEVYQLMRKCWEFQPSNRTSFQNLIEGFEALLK
Summary of the method: as §2

[3] = Pharmacokinetics in plasma and lung in mouse, intratracheal instillation; type: in vivo; details: male CD1 mice; for half-life / Kp at 5 min / Kp at 1 h: mouse; for half-life: lung, intratracheal instillation, read-out: Lung T1/2 (converted); for Kp at 5 min / Kp at 1 h: lung/plasma, other: intratracheal instillation; for Kp at 5 min: read-out: Conc. Ratio (Lung/Plasma) 5 min; for Kp at 1 h: read-out: Conc. Ratio (Lung/Plasma) 1 hr
Experimental: Lung PK of the compounds were tested via Intratracheal (IT) instillation administration in male CD1 Mice. Plasma and lung levels of test compounds and ratios thereof were determined in the following manner. Test compounds were dosed cassettely as the formulation of 0.4 mg/mL suspension of 0.5% HPMC, 0.1% Tween 80 in saline. The animal was anesthetized using 5% of isoflurane for 5 min, open its mouth and take out the tongue, the light was focused on the neck of the mouse and localize the trachea, and the syringe was inserted into the trachea while the trachea is in the open state, and the test compounds were inject into the trachea. At various time points (typically 5 min, 1, 4, 24 hours) post dosing, approximately 0.250 mL blood samples were removed via cardiac puncture and intact lungs were excised from the mice. Each blood sample was transferred into plastic micro centrifuge tubes containing K2EDTA. Blood samples were then centrifuged (Eppendorf centrifuge, 5804R) for 4 minutes at approximately 12,000 rpm at 4° C. to collect plasma. The mice will be fully exsanguinated prior to tissue collection. Lung samples will be collected at adopted time point and the whole lung were weighted and homogenized. Concentrations of test compounds in the plasma and lung samples were analyzed using a LC-MS/MS method. WinNonlin (Phoenix™) or other similar software will be used for pharmacokinetic calculations.

JAK3 = target: T3, JAK3 (Homo sapiens, UniProt P52333); assay: Lance Ultra Kinase Assay, recombinant JAK3; type: biochemical; details: 5 mM ATP
T3 construct: purchased Carna Biosciences
T3 sequence (P52333 1-1124): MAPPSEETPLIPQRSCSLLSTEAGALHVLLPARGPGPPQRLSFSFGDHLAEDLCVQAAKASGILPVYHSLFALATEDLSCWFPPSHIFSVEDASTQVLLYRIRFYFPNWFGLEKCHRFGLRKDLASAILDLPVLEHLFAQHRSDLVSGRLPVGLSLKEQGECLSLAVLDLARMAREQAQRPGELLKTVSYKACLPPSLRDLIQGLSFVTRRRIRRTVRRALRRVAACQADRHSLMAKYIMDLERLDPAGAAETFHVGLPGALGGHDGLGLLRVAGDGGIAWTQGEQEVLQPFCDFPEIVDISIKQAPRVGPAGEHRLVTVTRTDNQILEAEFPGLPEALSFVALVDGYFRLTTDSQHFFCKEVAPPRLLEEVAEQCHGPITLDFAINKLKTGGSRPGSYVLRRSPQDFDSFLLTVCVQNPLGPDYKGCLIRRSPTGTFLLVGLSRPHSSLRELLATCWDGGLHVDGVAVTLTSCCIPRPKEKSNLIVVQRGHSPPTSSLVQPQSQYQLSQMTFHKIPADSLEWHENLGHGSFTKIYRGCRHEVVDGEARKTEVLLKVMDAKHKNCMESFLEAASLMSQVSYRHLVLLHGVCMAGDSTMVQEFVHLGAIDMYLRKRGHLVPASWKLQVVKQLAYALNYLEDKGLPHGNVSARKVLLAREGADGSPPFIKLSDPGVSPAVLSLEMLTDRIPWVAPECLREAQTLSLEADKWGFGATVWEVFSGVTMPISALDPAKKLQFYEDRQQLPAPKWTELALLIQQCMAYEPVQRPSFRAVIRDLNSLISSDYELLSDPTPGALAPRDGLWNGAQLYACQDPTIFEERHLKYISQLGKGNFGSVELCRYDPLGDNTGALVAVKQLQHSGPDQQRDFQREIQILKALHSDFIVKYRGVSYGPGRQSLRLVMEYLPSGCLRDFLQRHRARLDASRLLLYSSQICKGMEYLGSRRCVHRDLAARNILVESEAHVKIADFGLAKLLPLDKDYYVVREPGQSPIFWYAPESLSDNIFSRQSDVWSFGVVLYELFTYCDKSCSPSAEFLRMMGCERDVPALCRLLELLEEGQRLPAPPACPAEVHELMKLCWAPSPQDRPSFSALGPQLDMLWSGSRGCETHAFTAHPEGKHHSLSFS
Summary of the method: as §2

JAK2 = target: T4, JAK2 (Homo sapiens, UniProt O60674); assay: Lance Ultra Kinase Assay, recombinant JAK2; type: biochemical; details: 5 mM ATP
T4 construct: purchased Carna Biosciences
T4 sequence (O60674 whole entry): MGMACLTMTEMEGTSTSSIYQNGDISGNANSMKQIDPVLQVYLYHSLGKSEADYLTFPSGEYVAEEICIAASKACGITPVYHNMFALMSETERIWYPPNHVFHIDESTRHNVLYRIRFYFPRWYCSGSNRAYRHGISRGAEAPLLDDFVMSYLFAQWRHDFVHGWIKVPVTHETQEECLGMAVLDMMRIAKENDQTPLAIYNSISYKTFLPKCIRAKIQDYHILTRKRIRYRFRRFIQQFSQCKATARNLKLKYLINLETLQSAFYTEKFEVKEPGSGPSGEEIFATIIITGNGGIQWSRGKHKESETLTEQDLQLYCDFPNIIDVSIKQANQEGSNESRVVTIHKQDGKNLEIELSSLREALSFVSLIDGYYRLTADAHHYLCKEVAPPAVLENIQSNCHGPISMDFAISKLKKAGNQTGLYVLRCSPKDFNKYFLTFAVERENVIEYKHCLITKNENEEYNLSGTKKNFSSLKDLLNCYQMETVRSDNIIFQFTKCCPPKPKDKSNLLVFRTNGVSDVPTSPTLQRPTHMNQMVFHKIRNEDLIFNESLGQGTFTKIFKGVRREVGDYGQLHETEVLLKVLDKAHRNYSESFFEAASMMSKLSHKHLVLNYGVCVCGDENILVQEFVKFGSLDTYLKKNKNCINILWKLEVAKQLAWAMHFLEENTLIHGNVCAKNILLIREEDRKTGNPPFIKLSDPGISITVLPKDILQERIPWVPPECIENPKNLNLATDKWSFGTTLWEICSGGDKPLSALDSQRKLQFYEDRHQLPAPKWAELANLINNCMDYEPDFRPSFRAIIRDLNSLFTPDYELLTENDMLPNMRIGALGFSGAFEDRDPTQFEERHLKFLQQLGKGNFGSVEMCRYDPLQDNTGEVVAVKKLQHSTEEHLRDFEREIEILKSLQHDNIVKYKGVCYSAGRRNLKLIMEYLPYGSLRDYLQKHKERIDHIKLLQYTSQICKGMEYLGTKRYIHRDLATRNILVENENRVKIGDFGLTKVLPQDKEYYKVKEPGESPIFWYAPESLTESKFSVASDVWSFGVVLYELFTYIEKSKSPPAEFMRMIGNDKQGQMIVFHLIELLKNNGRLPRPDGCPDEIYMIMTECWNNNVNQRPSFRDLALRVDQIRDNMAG
Summary of the method: as §2

SMILES	microsomal CLint at 1 μM [1] [µL/min/mg]	Rat Hepatocyte CLint [2] [μL/min/10^6 cells]	IC50 (TYK2) [nM]	IC50 (phosphorylation of STAT6) [nM]	IC50 (JAK1) [nM]	% Dose in Lung 5 min [3] [%]	% Dose in Lung 1 hr [3] [%]	half-life [3] [h]	Kp at 5 min [3]	Kp at 1 h [3]	IC50 (JAK3) [nM]	IC50 (JAK2) [nM]
COC[C@H](C(=O)Nc1cccc2c(-c3nc(Nc4ccnc(CO)c4)ncc3F)c[nH]c12)N1CCN(C)CC1 [Example 2, (R)-N-(3-(5-fluoro-2-((2-(hydroxymethyl)pyridin-4-yl)amino)pyrimidin-4-yl)-1H-indol-7-yl)-3-methoxy-2-(4-methylpiperazin-1-yl)propanamide]	10.6	9.5	1090	4.3	0.25	18.1	13.4	29.9	399	3260	> 10000	202
CCC(=O)Nc1ccc(Nc2ncc(F)c(-c3c[nH]c4c(NC(=O)[C@@H](COC)N5CCN(C)CC5)cccc34)n2)cn1 [Example 5, (R)-N-(3-(5-fluoro-2-((6-propionamidopyridin-3-yl)amino)pyrimidin-4-yl)-1H-indol-7-yl)-3-methoxy-2-(4-methylpiperazin-1-yl)propanamide]	73.9	11.0	764	5.1	0.19	101.6	54.0	6.1	2100	2940	> 10000	268
COC[C@H](C(=O)Nc1cccc2c(-c3nc(Nc4ccc(NC(=O)CO)nc4)ncc3F)c[nH]c12)N1CCN(C)CC1 [Example 8, (R)-N-(3-(5-fluoro-2-((6-(2-hydroxyacetamido)pyridin-3-yl)amino)pyrimidin-4-yl)-1H-indol-7-yl)-3-methoxy-2-(4-methylpiperazin-1-yl)propanamide]	7.2	38.4	850	6.2	0.16	62.7	13.4	3.5	296	1590	> 10000	183
COC[C@H](C(=O)Nc1cccc2c(-c3nc(Nc4ccc5sc(CO)nc5c4)ncc3F)c[nH]c12)N1CCN(C)CC1 [Example 38, (R)-N-(3-(5-fluoro-2-((2-(hydroxymethyl)benzo[d]thiazol-5-yl)amino)pyrimidin-4-yl)-1H-indol-7-yl)-3-methoxy-2-(4-methylpiperazin-1-yl)propanainide]	10.9	117.1	726	11.8	0.13	79.9	19.4	3.9	965	1780	> 10000	65
COC[C@H](C(=O)Nc1cccc2c(-c3nc(Nc4ccc(-c5cnco5)nc4)ncc3F)c[nH]c12)N1CCN(C)CC1 [Example 40, (R)-N-(3-(5-fluoro-2-((6-(oxazol-5-yl)pyridin-3-yl)amino)pyrimidin-4-yl)-1H-indol-7-yl)-3-methoxy-2-(4-methylpiperazin-1-yl)propanamide]	50.4	36.4	2510	12.1	0.21	58.6	23.0	4.6	824	1440	> 10000	219
COC[C@H](C(=O)Nc1cccc2c(-c3nc(Nc4cnn(-c5cccc(CO)c5)c4)ncc3F)c[nH]c12)N1CCN(C)CC1 [Example 67, (R)-N-(3-(5-fluoro-2-((1-(3-(hydroxymethyl)phenyl)-1H-pyrazol-4-yl)amino)pyrimidin-4-yl)-1H-indol-7-yl)-3-methoxy-2-(4-methylpiperazin-1-yl)propanamide]	19.5	153.6	609	20.6	0.18	–	–	–	–	–	6770	35
